Laboratory results taken from publication PMC6680510, “Benzotriazine Di-Oxide Prodrugs for Exploiting Hypoxia and Low Extracellular pH in Tumors” (Molecules, 2019).
Like-named read-outs stand apart in the source and are kept apart here.

Experiments:
SiHa cells [1] = test: IC50 assay (inhibition of proliferation, 4 h exposure, SRB); settings: SiHa; for IC50: Homo sapiens, 4 h
Procedure, shortened: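 Cells exposed to compound for 4 h in titrated medium, then washed and regrown 5 days under standard conditions (oxia, pHe 7.4). Growth read by sulforhodamine B staining; IC50 from 4-parameter logistic regression of duplicate cultures.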

FaDu cells = test: as above; format: cell-based; settings: for IC50: Homo sapiens, 4 h
UT-SCC-74B cells = test: as above; format: cell-based; settings: UT-SCC-74B, UT-SCC-74B; for IC50: Homo sapiens, 4 h
Description: Cells were seeded in 96-well plates (SiHa or FaDu 1500 cells/well, UT-SCC-74B 800 cells/well) in 100 μL. After incubation for 2 h, the drugs were added in 50 μL of the same titrated medium at 3× the final concentration to duplicate the wells. After a further 4 h the plates were checked for drug precipitation using a phase contrast microscope, then drugs were removed by aspirating and washing with the standard (pH 7.4) medium, then aspirating again and adding 150 μL of the medium. Cultures were then grown for 5 days before staining with sulphorhodamine B and measuring absorbance, with the estimation of IC50 values using 4-parameter logistic regression, as previously carried out.
The medium and plasticware was equilibrated in the chamber for 3 days prior to use. In the anoxia experiments, FaDu cells were plated in poly-L-lysine coated plates (Corning Cat # 356461) to improve attachment. […]
Footnotes: a Number of experiments. b Anoxic cytotoxicity ratio = oxic IC50/anoxic IC50. c pH
cytotoxicity ratio = IC50 at pHe 7.4/ IC50 at pHe 6.5. d Overall ratio = oxic IC50 pHe 7.4 / anoxic IC50 pHe
6.5. Values are means and errors are SEM. For ratios, the errors are root mean square SEM. […]

SiHa cells [2] = test: IC50 assay modified for chronic hypoxia (oxia, hypoxia, anoxia); format: cell-based; settings: for IC50: Homo sapiens
Description: There are relatively few viable cells in tumors at O2 concentrations as low as in the above anoxic experiments. In addition, extensive changes in gene expression occur under chronic exposure to intermediate O2 concentrations (chronic hypoxia), including the expression of proteins that regulate pHi. […] Therefore, oxic and anoxic exposures were also tested in these same experiments. The 24 h adaptation to hypoxia had little effect on the subsequent growth of the cultures at either pHe value (Figure S6).
To minimize problems with poor cell attachment under chronic hypoxia, the drugs were added from a 3-fold dilution series made in a separate plate, rather than by serial dilution in the plates containing the cells. In addition, the drugs were removed after the 4 h exposure by centrifuging the plates (200g × 5 min) prior to each aspiration. The same modifications were used for the oxic drug exposures in these experiments.

SiHa and SiHa/POR cells = test: IC50 in SiHa versus SiHa/POR cultures under anoxia; format: cell-based; settings: 4 h under anoxia, pHe 7.4
Description: The lack of effect of POR over-expression on the reductive metabolism of the BTO acids in intact cells led us to compare the cytotoxicities of SN30000 (2), 4a, and 7a in SiHa/POR, and the parental line, under anoxia (Figure 6).
Drug exposure was for 4 h under anoxia, at pHe 7.4, with regrowth under aerobic conditions for 5 days before staining with SRB. Values are means and SEM for the two experiments, each with triplicate cultures at each drug concentration. TEXT PRINTED IN THE PICTURE: Cmpd 2: Ratio 6.75 ± 0.20 | Cmpd 4a: Ratio 3.40 ± 0.22 | Cmpd 7a: Ratio 2.67 ± 0.46

SiHa and FaDu cells = test: IC50 assay, summary statements over both cell lines; format: cell-based; settings: read-out: Potency (IC50) under anoxia at pHe 6.5
Description: Cells were seeded in 96-well plates (SiHa or FaDu 1500 cells/well, UT-SCC-74B 800 cells/well) in 100 μL. After incubation for 2 h, the drugs were added in 50 μL of the same titrated medium at 3× the final concentration to duplicate the wells. After a further 4 h the plates were checked for drug precipitation using a phase contrast microscope, then drugs were removed by aspirating and washing with the standard (pH 7.4) medium, then aspirating again and adding 150 μL of the medium. Cultures were then grown for 5 days before staining with sulphorhodamine B and measuring absorbance, with the estimation of IC50 values using 4-parameter logistic regression, as previously carried out [85].

[3] = pulse radiolysis, redox indicator MV^2+; cited from earlier work
[4] = design: method as in PMID 24737463; settings: cited from earlier work
[5] = tested on: MDCK-II cells with forced expression of BCRP or Pgp; test: IC50 under anoxia in cells with forced expression of efflux transporters; settings: MDCK-II cell lines under anoxia, preliminary experiments
Description: expression of BCRP or Pgp.
Cells were seeded at 300 cells/well in DMEM with 10% FBS in 96 well plates in an
anaerobic chamber, allowed to attach for 2 h then exposed to drugs for 4 h under anoxia. Cells were
then washed with fresh medium and grown for 5 days under aerobic conditions before staining with
SRB. Values are mean ± SEM from 2 separate experiments.

SiHa cells [6] = test: Cellular uptake in stirred aerobic single cell suspensions (HPLC, 3H-mannitol correction)
[7] = design: method as in PMID 28848445; settings: cited from earlier work

[O-][n+]1nc(CCCN2CCOCC2)[n+]([O-])c2cc3c(cc21)CCC3 [Compound 2, SN30000, reference compound]
IC50 (SiHa cells [1]; read-out: Anoxic IC50, SiHa, pHe 6.5, 4 h, anoxic): 5.52 ± 2.01 µM | IC50 (SiHa cells [1]; read-out: Anoxic IC50, SiHa, pHe 7.4, 4 h, anoxic): 2.87 ± 0.23 µM | IC50 (SiHa cells [1]; read-out: Oxic IC50, SiHa, pHe 6.5, 4 h, oxic): 253 ± 31 µM | IC50 (SiHa cells [1]; read-out: Oxic IC50, SiHa, pHe 7.4, 4 h, oxic): 292 ± 15 µM | TMR (overall TME ratio = oxic IC50 pHe 7.4/anoxic IC50 pHe 6.5) (SiHa cells [1]): 53 ± 19 | PCR Anoxic (IC50 at pHe 7.4/IC50 at pHe 6.5) (SiHa cells [1]; anoxic): 0.52 ± 0.19 | PCR oxic (IC50 at pHe 7.4/IC50 at pHe 6.5) (SiHa cells [1]; oxic): 1.15 ± 0.15 | ACR (anoxic cytotoxicity ratio = oxic IC50/anoxic IC50) (SiHa cells [1]; pHe 6.5): 46 ± 18.0 | ACR (anoxic cytotoxicity ratio = oxic IC50/anoxic IC50) (SiHa cells [1]; pHe 7.4): 101 ± 10 | PCR (pH cytotoxicity ratio) (SiHa cells [1]; representative experiment (Figure 3), oxia and anoxia): little or no dependence on pHe | ACR (anoxia cytotoxicity ratio) (SiHa cells [1]; representative experiment (Figure 3), pHe 7.4 and 6.5): approximately 140 | TMR (oxic IC50 pHe 7.4/anoxic IC50 pHe 6.5) (FaDu cells): 29.8 ± 5.7 | IC50 (FaDu cells; pHe 6.5, 4 h, anoxic, read-out: Anoxic IC50): 8.63 ± 1.55 µM | IC50 (FaDu cells; pHe 6.5, 4 h, oxic, read-out: Oxic IC50): 277 ± 15 µM | IC50 (FaDu cells; pHe 7.4, 4 h, anoxic, read-out: Anoxic IC50): 4.16 ± 0.35 µM | IC50 (FaDu cells; pHe 7.4, 4 h, oxic, read-out: Oxic IC50): 258 ± 15 µM | PCR Anoxic (IC50 at pHe 7.4/IC50 at pHe 6.5) (FaDu cells; anoxic): 0.48 ± 0.10 | PCR oxic (IC50 at pHe 7.4/IC50 at pHe 6.5) (FaDu cells; oxic): 0.93 ± 0.08 | ACR (oxic IC50/anoxic IC50) (FaDu cells; pHe 6.5): 32.1 ± 6.04 | ACR (oxic IC50/anoxic IC50) (FaDu cells; pHe 7.4): 62.0 ± 6.34 | IC50 (UT-SCC-74B cells; pHe 6.5, 4 h, 20% O2, read-out: Oxic IC50): 190 ± 42 µM | IC50 (UT-SCC-74B cells; pHe 6.5, 4 h, <0.01% O2, read-out: Anoxic IC50): 6.29 ± 1.79 µM | IC50 (UT-SCC-74B cells; pHe 7.4, 4 h, 20% O2, read-out: Oxic IC50): 477 ± 65 µM | IC50 (UT-SCC-74B cells; pHe 7.4, 4 h, <0.01% O2, read-out: Anoxic IC50): 5.92 ± 2.42 µM | TME ratio (oxic IC50 pHe 7.4/anoxic IC50 pHe 6.5) (UT-SCC-74B cells): 75.8 ± 23.9 | PCR Anoxic (IC50 at pHe 7.4/IC50 at pHe 6.5) (UT-SCC-74B cells; anoxic): 0.94± 0.47 | PCR oxic (IC50 at pHe 7.4/IC50 at pHe 6.5) (UT-SCC-74B cells; oxic): 2.51 ± 0.65 | ACR (oxic IC50/anoxic IC50) (UT-SCC-74B cells; pHe 6.5): 30.2 ± 10.9 | ACR (oxic IC50/anoxic IC50) (UT-SCC-74B cells; pHe 7.4): 80.6 ± 34.7 | PCR (IC50 for pHe 7.4/IC50 for pHe 6.5) (SiHa cells [2]; 0.2% O2): 1.76 ± 0.43 | HCR (SiHa cells [2]; 0.2% O2, both pHe values): approximately 20 | PCR (IC50 for pHe 7.4/IC50 for pHe 6.5) (SiHa cells [2]; 20% O2): 1.95 ± 0.66 | PCR (IC50 for pHe 7.4/IC50 for pHe 6.5) (SiHa cells [2]; <0.01% O2): 0.84 ± 0.15 | IC50 (SiHa cells [2]; 0.2% O2 (24 h before and during 4 h exposure), pHe 6.5): 9.88 ± 2.34 µM | IC50 (SiHa cells [2]; 0.2% O2 (24 h before and during 4 h exposure), pHe 7.4): 17.4 ± 1.02 µM | IC50 (SiHa cells [2]; 4 h, 20% O2, pHe 6.5, 4 h): 207 ± 69 µM | IC50 (SiHa cells [2]; 4 h, 20% O2, pHe 7.4, 4 h): 404 ± 21 µM | IC50 (SiHa cells [2]; 4 h, <0.01% O2, pHe 6.5, 4 h): 3.07 ± 0.38 µM | IC50 (SiHa cells [2]; 4 h, <0.01% O2, pHe 7.4, 4 h): 2.59 ± 0.35 µM | ACR (IC50 for 20% O2/IC50 for <0.01% O2) (SiHa cells [2]; pHe 6.5): 67 ± 24 | HCR (IC50 for 20% O2/IC50 for 0.2% O2) (SiHa cells [2]; pHe 6.5): 20.1 ± 8.6 | ACR (IC50 for 20% O2/IC50 for <0.01% O2) (SiHa cells [2]; pHe 7.4): 156 ± 23 | HCR (IC50 for 20% O2/IC50 for 0.2% O2) (SiHa cells [2]; pHe 7.4): 23.2 ± 1.8 | IC50 ratio SiHa / SiHa/POR (fold lower IC50 in POR cell line) (SiHa and SiHa/POR cells): 6.75 ± 0.20 | IC50 ratio SiHa / SiHa/POR (fold lower IC50 in POR cell line) (SiHa and SiHa/POR cells; listed as SN30000): 6.75 | IC50 (SiHa and FaDu cells): 2.9 to 8.6 µM | E^0′ one-electron reduction potential [3]: −401 ± 8 [MV^2+] ^g mV | pKa of the radical anion [4]: 5.48 ± 0.26 | Effect of overexpression of BCRP or Pgp efflux transporters on sensitivity [5]: no effect | Uptake (Ci/Ce) at 4 °C relative to 37 °C (SiHa cells [6]; SiHa cell suspensions, data not shown): minor increase | Ci ratio (Ci at pHe 6.5/Ci at pHe 7.4) (SiHa cells [6]; aerobic SiHa suspensions, 5 min): 1.09 ± 0.09 fold | Ci ratio (Ci at pHe 6.5/Ci at pHe 7.4) (SiHa cells [6]; aerobic SiHa suspensions, 60 min): 0.95 ± 0.07 fold | Ci/Ce, pHe 6.5 Obs 5 min (SiHa cells [6]; aerobic SiHa suspensions, pHe 6.5, 5 min): 2.75 ± 0.07 | Ci/Ce, pHe 6.5 Obs 60 min (SiHa cells [6]; aerobic SiHa suspensions, pHe 6.5, 60 min): 2.37 ± 0.02 | Ci/Ce, pHe 7.4 Obs 5 min (SiHa cells [6]; aerobic SiHa suspensions, pHe 7.4, 5 min): 2.48± 0.27 | Ci/Ce, pHe 7.4 Obs 60 min (SiHa cells [6]; aerobic SiHa suspensions, pHe 7.4, 60 min): 2.49 ± 0.05

O=C(O)CCc1nc2cc3c(cc2[n+]([O-])n1)CCC3 [Compound 15d, 3-(2-Carboxyethyl)-7,8-dihydro-6H-indeno[5,6-e][1,2,4]triazine 1-Oxide]
Protein bound in mouse plasma [7]: > 90%
